Here are results for 10 compounds from paper PMC9774241, “Associating Biological Activity and Predicted Structure of Antimicrobial Peptides from Amphibians and Insects” (Antibiotics, 2022).

What all share (format): cell-based
What all share (settings): broth microdilution in MHB, peptide 128 down to 0.5 µg/mL, 20–24 h at 37 °C, no visible growth; range of three independent experiments
Background: Dilution methods test growth across graded concentrations, often in twofold steps.

Assay [1] concerns Staphylococcus aureus ATCC 29213. The protocol: (§1) Bacteria were grown overnight at 37 °C in Mueller-Hinton Broth (MHB; Sigma-Aldrich, St. Louis. MO, USA) in a shaking incubator and aliquoted into cryovials with a 50% glycerol solution in a 1:1 ratio. No additives were added to the MHB during the growth of bacterial isolates. Glycerol stocks were stored at −80 °C.
(§2) The antimicrobial activity of the putative AMPs was determined by a broth microdilution assay as described by the Clinical and Laboratory Standards Institute, with the published adaptations for testing of cationic peptides. Escherichia coli 25922 and Staphylococcus aureus 29213 isolates were purchased from the American Type Culture Collection (ATCC; Manassas, VA, USA). A human clinical isolate of Salmonella enterica serovar Enteritidis was provided by the BC Centre for Disease Control. Bacteria from stocks stored at −80 °C were streaked onto nonselective Columbia blood agar with 5% sheep blood (Oxoid) and incubated overnight at 37 °C. Next, 2–4 colonies were streaked onto a new agar plate to ensure uniform health of colonies used in the broth microdilution assay. Isolated colonies were suspended in MHB and the optical density was measured with a spectrophotometer to create an initial inoculum concentration of approximately 1 × 10^8 cfu/mL. The inoculum was diluted 1:250 to a final concentration of 2–8 × 10^5 cfu/mL, which was confirmed by performing a Total Viability Count (TVC). The TVC consisted of plating a 1:1000 dilution of the final inoculum on nonselective media and was also used to confirm the health and purity of the inoculum in each trial.
(§3) Lyophilized 80 µg peptide aliquots synthesized by GenScript (Piscataway, NJ, USA) were resuspended to 1.28 mg/mL with UltraPure water (Thermo Fisher Scientific, Waltham, MA, USA) and serially diluted in polypropylene 96-well microtiter plates (Greiner Bio-One #650261, Kremsmünster, Austria) from 128 down to 0.5 µg/mL. Two columns per plate were reserved for growth and sterility controls. Inoculum was added to the wells containing the peptide and the growth control. Plates were incubated for 20–24 h at 37 °C. The minimum inhibitory concentration (MIC) was determined as the lowest peptide concentration where there was no visible bacterial growth.

For assay [2], the system named is Salmonella enterica serovar Enteritidis (human clinical isolate). The protocol: as §1, §2, §3
Assay [3] has as its system Escherichia coli ATCC 25922. As for the experimental part:
as §1, §2, §3

SMILES strings stand for the structures. Values after ≈ are worked out from the molar mass of the structure shown. Residues, ends and D or L forms follow the SMILES beside them. Some results are limits rather than exact numbers.

For the compound `CC[C@H](C)[C@H](NC(=O)[C@H](CCCCN)NC(=O)[C@H](CS)NC(=O)[C@H](Cc1ccccc1)NC(=O)[C@H](CCCCN)NC(=O)[C@H](CCCNC(=N)N)NC(=O)[C@H](CO)NC(=O)[C@H](Cc1ccc(O)cc1)NC(=O)CNC(=O)[C@H](CS)NC(=O)[C@@H]1CCCN1C(=O)[C@H](C)NC(=O)[C@@H](NC(=O)[C@H](C)NC(=O)[C@H](Cc1ccccc1)NC(=O)[C@H](Cc1ccccc1)NC(=O)[C@H](Cc1ccccc1)NC(=O)[C@H](CCCNC(=N)N)NC(=O)[C@@H](N)CCCNC(=N)N)[C@@H](C)O)C(=O)N[C@H](C(=O)N[C@@H](CCCNC(=N)N)C(=O)N[C@@H](CCCNC(=N)N)C(=O)N[C@@H](CCCCN)C(=O)N[C@@H](CCCNC(=N)N)C(=O)O)[C@@H](C)O` [CaCa4] (H-RRFFFATAPCGYSRKFCKITRRKR-OH), the “MIC, S. aureus ATCC 29213” value in assay [1] is listed as more than 128 µg/mL. In addition, in assay [2], the “MIC, Salmonella Enteritidis” value lay within 32 to 64 µg/mL. Besides, the “MIC, E. coli ATCC 25922” value in assay [3] was 16 to 32 µg/mL.
Taken in the same sequence, the figures for `CC[C@H](C)[C@H](NC(=O)CNC(=O)[C@H](CO)NC(=O)[C@H](CC(C)C)NC(=O)[C@H](CC(C)C)NC(=O)CN)C(=O)N[C@@H](CC(C)C)C(=O)NCC(=O)N[C@@H](C)C(=O)NCC(=O)N[C@@H](CCCCN)C(=O)N[C@@H](CCCCN)C(=O)N[C@H](C(=O)N[C@H](C(=O)N[C@@H](CS)C(=O)NCC(=O)N[C@@H](Cc1ccccc1)C(=O)N[C@@H](CO)C(=O)NCC(=O)N[C@@H](CC(C)C)C(=O)N[C@@H](CS)C(=O)O)C(C)C)[C@@H](C)CC` [OdMa1] (H-GLLSGILGAGKKIVCGFSGLC-OH; N-terminus and C-terminus assumed) were 64 µg/mL (≈ 32.1 µM), 128 µg/mL (≈ 64.2 µM) and 8 to 16 µg/mL.
Turning to `CC[C@H](C)[C@H](NC(=O)[C@H](CCCCN)NC(=O)[C@H](CCCCN)NC(=O)CNC(=O)[C@H](C)NC(=O)CNC(=O)[C@H](CC(C)C)NC(=O)[C@H](CC(C)C)NC(=O)CNC(=O)[C@H](CO)NC(=O)[C@H](CC(C)C)NC(=O)[C@H](CC(C)C)NC(=O)CN)C(=O)N[C@H](C(=O)N[C@@H](CS)C(=O)NCC(=O)N[C@@H](CC(C)C)C(=O)N[C@@H](CO)C(=O)NCC(=O)N[C@@H](CCSC)C(=O)N[C@@H](CS)C(=O)O)C(C)C` [OdMa3] (H-GLLSGLLGAGKKIVCGLSGMC-OH; N-terminus and C-terminus assumed), in assay [1], the “MIC, S. aureus ATCC 29213” value was found to be 32 µg/mL (≈ 16.2 µM). Besides, in assay [2], the “MIC, Salmonella Enteritidis” value was 64 µg/mL (≈ 32.4 µM). In addition, the “MIC, E. coli ATCC 25922” value in assay [3] was in the range of 8 to 16 µg/mL.
For `CC[C@H](C)[C@H](NC(=O)CN)C(=O)N[C@@H](CC(C)C)C(=O)N[C@@H](CO)C(=O)NCC(=O)N[C@@H](CC(C)C)C(=O)N[C@@H](CC(C)C)C(=O)NCC(=O)N[C@@H](C)C(=O)NCC(=O)N[C@@H](CCCCN)C(=O)N[C@@H](CCCCN)C(=O)N[C@H](C(=O)N[C@H](C(=O)N[C@@H](CS)C(=O)NCC(=O)N[C@@H](CC(C)C)C(=O)N[C@@H](CO)C(=O)NCC(=O)N[C@@H](CC(C)C)C(=O)N[C@@H](CS)C(=O)O)C(C)C)[C@@H](C)CC` [OdMa5] (H-GILSGLLGAGKKIVCGLSGLC-OH; N-terminus and C-terminus assumed), the “MIC, S. aureus ATCC 29213” value in assay [1] fell in the range of 8 to 16 µg/mL. In assay [2], the “MIC, Salmonella Enteritidis” value lay within 64 to 128 µg/mL. Besides, the “MIC, E. coli ATCC 25922” value in assay [3] lay in the range of 8 to 16 µg/mL.
Regarding `CC[C@H](C)[C@H](NC(=O)[C@H](CCCCN)NC(=O)[C@H](CCCCN)NC(=O)CNC(=O)[C@@H](NC(=O)CNC(=O)[C@H](CC(C)C)NC(=O)[C@@H](NC(=O)CNC(=O)[C@H](CO)NC(=O)[C@H](CC(C)C)NC(=O)[C@H](CC(C)C)NC(=O)CN)C(C)C)C(C)C)C(=O)N[C@H](C(=O)N[C@@H](CS)C(=O)NCC(=O)N[C@@H](CC(C)C)C(=O)N[C@@H](CO)C(=O)NCC(=O)N[C@@H](CC(C)C)C(=O)N[C@@H](CS)C(=O)O)C(C)C` [OdMa6] (H-GLLSGVLGVGKKIVCGLSGLC-OH; N-terminus and C-terminus assumed), the “MIC, S. aureus ATCC 29213” value in assay [1] fell in the range of 16 to 32 µg/mL. Further, the “MIC, Salmonella Enteritidis” value in assay [2] was found to be 128 µg/mL (≈ 64.9 µM). The “MIC, E. coli ATCC 25922” value in assay [3] was 8 to 16 µg/mL.
With `CC(C)C[C@H](NC(=O)CNC(=O)[C@H](CO)NC(=O)[C@H](CC(C)C)NC(=O)CNC(=O)[C@H](CS)NC(=O)[C@H](CC(C)C)NC(=O)[C@@H](NC(=O)[C@H](CCCCN)NC(=O)[C@H](CCCCN)NC(=O)CNC(=O)[C@@H](NC(=O)CNC(=O)[C@H](CC(C)C)NC(=O)[C@@H](NC(=O)CNC(=O)[C@H](CO)NC(=O)[C@H](CC(C)C)NC(=O)[C@H](CC(C)C)NC(=O)CN)C(C)C)C(C)C)C(C)C)C(=O)N[C@@H](CS)C(=O)O` [OdMa7] (H-GLLSGVLGVGKKVLCGLSGLC-OH; N-terminus and C-terminus assumed), the “MIC, S. aureus ATCC 29213” value in assay [1] lay within 16 to 32 µg/mL. In addition, the “MIC, Salmonella Enteritidis” value in assay [2] was determined as 128 µg/mL (≈ 64.9 µM). Further, the “MIC, E. coli ATCC 25922” value in assay [3] is 8 to 16 µg/mL.
On to `CC[C@H](C)[C@H](NC(=O)CNC(=O)[C@H](CO)NC(=O)[C@@H](NC(=O)[C@H](CC(C)C)NC(=O)CN)[C@@H](C)CC)C(=O)N[C@@H](CC(C)C)C(=O)NCC(=O)N[C@@H](C)C(=O)NCC(=O)N[C@@H](CCCCN)C(=O)N[C@@H](CCCCN)C(=O)N[C@H](C(=O)N[C@@H](CC(C)C)C(=O)N[C@@H](CS)C(=O)NCC(=O)N[C@@H](CC(C)C)C(=O)N[C@@H](CO)C(=O)NCC(=O)N[C@@H](CC(C)C)C(=O)N[C@@H](CS)C(=O)O)C(C)C` [OdMa10] (H-GLISGILGAGKKVLCGLSGLC-OH; N-terminus and C-terminus assumed), for which the “MIC, S. aureus ATCC 29213” value in assay [1] lay in the range of 64 to 128 µg/mL. The “MIC, Salmonella Enteritidis” value in assay [2] is reported as more than 128 µg/mL. The “MIC, E. coli ATCC 25922” value in assay [3] lay in the range of 16 to 32 µg/mL.
Taken in the same sequence, the figures for `CC[C@H](C)[C@H](NC(=O)[C@H](CCCCN)NC(=O)[C@H](CS)NC(=O)[C@H](CCCCN)NC(=O)[C@H](CC(C)C)NC(=O)[C@H](CC(N)=O)NC(=O)[C@H](Cc1ccc(O)cc1)NC(=O)[C@H](CC(C)C)NC(=O)[C@H](CC(C)C)NC(=O)[C@@H](NC(=O)[C@@H](NC(=O)[C@H](C)NC(=O)[C@@H](NC(=O)[C@H](CC(N)=O)NC(=O)[C@H](CCCCN)NC(=O)[C@H](C)NC(=O)[C@@H](NC(=O)[C@H](CC(N)=O)NC(=O)[C@H](CCCCN)NC(=O)[C@H](C)NC(=O)[C@@H](NC(=O)[C@H](CC(=O)O)NC(=O)[C@H](CCSC)NC(=O)[C@H](Cc1ccccc1)NC(=O)CN)[C@@H](C)O)C(C)C)C(C)C)C(C)C)[C@@H](C)O)C(=O)N[C@H](C(=O)N[C@@H](CCCCN)C(=O)N[C@@H](C)C(=O)N[C@@H](CS)C(=O)O)[C@@H](C)O` [OdMa12] (H-GFMDTAKNVAKNVAVTLLYNLKCKITKAC-OH; N-terminus and C-terminus assumed) were 64 to 128 µg/mL, 64 µg/mL (≈ 20.3 µM) and 4 µg/mL (≈ 1.27 µM).
As to `CC[C@H](C)[C@H](NC(=O)CN)C(=O)N[C@@H](CC(C)C)C(=O)N[C@@H](CO)C(=O)NCC(=O)N[C@@H](CC(C)C)C(=O)N[C@@H](CC(C)C)C(=O)NCC(=O)N[C@@H](C)C(=O)NCC(=O)N[C@@H](CCCCN)C(=O)N[C@@H](CCCCN)C(=O)N[C@@H](CC(C)C)C(=O)N[C@@H](C)C(=O)N[C@@H](CS)C(=O)NCC(=O)N[C@@H](CC(C)C)C(=O)N[C@H](C(=O)NCC(=O)N[C@@H](CC(C)C)C(=O)N[C@@H](CS)C(=O)O)[C@@H](C)CC` [OdTo1] (H-GILSGLLGAGKKLACGLIGLC-OH; N-terminus and C-terminus assumed), the “MIC, S. aureus ATCC 29213” value in assay [1] fell in the range of 8 to 16 µg/mL. For the same compound, the “MIC, Salmonella Enteritidis” value in assay [2] lay in the range of 32 to 64 µg/mL. Also, the “MIC, E. coli ATCC 25922” value in assay [3] is reported as 8 µg/mL (≈ 4.09 µM).
As to `CC[C@H](C)[C@H](NC(=O)CN)C(=O)N[C@@H](Cc1ccccc1)C(=O)NCC(=O)NCC(=O)N[C@@H](Cc1c[nH]cn1)C(=O)N[C@@H](CC(C)C)C(=O)N[C@@H](CCCCN)C(=O)N[C@H](C(=O)NCC(=O)N[C@@H](CCCCN)C(=O)N[C@@H](CCCCN)C(=O)N[C@H](C(=O)N[C@@H](C)C(=O)N[C@@H](CS)C(=O)NCC(=O)N[C@@H](CC(C)C)C(=O)N[C@@H](CO)C(=O)NCC(=O)N[C@@H](CC(C)C)C(=O)N[C@@H](CS)C(=O)O)[C@@H](C)CC)C(C)C` [OdTo2] (H-GIFGGHLKVGKKIACGLSGLC-OH; N-terminus and C-terminus assumed), the “MIC, S. aureus ATCC 29213” value in assay [1] is listed as more than 128 µg/mL. The “MIC, Salmonella Enteritidis” value in assay [2] is on record as more than 128 µg/mL. In addition, the “MIC, E. coli ATCC 25922” value in assay [3] stood at 32 µg/mL (≈ 15.5 µM).
